Measured values from PMC8979054 (RSC Advances, 2022).
Where two headings read alike, the source gives them in different places.

Key:
xanthine oxidase [1] = biological target: T1, xanthine oxidase (Bos taurus, UniProt P80457); test: Fixed-ratio combination analysis on XO; details: for EC90: read-out: EC90 dose; for DRI: in techtochrysin + allopurinol combination
XO = details: cited from earlier work; for IC50: XO inhibition
xanthine oxidase [2] = biological target: T1, xanthine oxidase; test: In vitro xanthine oxidase inhibitory assay; format: biochemical, bovine
[3] = Dm (median-effect dose), antilog of x-intercept of median-effect plot, CompuSyn
[4] = EC50 dose, single agent, dose for 50% inhibition of XO activity
[5] = single agent, dose for 10% inhibition of XO activity
[6] = single agent, dose for 30% inhibition of XO activity
[7] = single agent, dose for 70% inhibition of XO activity

T1 sequence (P80457 whole entry): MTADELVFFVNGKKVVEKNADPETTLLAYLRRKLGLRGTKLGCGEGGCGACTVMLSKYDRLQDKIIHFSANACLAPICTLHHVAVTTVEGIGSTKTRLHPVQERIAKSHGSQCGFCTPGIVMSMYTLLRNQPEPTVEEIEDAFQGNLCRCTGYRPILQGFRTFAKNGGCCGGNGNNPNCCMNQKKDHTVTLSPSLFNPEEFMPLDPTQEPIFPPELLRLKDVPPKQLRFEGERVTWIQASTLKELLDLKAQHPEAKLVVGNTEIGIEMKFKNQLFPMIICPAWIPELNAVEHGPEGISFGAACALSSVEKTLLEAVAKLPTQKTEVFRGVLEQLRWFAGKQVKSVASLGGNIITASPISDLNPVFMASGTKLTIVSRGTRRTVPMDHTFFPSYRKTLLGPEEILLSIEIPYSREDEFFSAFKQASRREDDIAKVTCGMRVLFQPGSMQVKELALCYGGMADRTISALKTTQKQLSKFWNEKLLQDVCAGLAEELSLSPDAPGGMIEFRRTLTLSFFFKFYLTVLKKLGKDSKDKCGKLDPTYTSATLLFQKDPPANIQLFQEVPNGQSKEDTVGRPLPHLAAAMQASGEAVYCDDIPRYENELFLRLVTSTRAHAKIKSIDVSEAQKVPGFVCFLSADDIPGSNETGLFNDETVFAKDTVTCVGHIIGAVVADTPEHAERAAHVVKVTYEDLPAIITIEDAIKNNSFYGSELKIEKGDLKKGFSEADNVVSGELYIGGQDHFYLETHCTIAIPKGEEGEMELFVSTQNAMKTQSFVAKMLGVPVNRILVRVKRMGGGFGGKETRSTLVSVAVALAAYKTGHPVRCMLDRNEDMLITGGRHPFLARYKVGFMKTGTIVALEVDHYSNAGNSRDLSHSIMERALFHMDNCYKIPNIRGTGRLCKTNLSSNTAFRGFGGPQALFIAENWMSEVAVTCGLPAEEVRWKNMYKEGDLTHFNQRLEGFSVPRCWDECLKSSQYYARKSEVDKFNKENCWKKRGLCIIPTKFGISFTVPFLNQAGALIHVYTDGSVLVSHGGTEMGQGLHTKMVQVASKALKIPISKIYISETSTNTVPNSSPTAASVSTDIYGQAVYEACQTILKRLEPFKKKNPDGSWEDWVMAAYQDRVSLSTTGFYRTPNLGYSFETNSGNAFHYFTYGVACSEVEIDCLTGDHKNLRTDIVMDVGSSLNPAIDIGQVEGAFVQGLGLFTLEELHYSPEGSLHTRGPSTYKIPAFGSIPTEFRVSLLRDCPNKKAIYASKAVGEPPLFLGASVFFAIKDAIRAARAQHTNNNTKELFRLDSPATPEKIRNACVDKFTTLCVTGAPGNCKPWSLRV

## Oc1ncnc2[nH]ncc12 [Allopurinol, allopurinol, reference compound]
Xanthine oxidase [1]
  EC10 dose: 180 nM
  EC30 dose: 420 nM
  EC70 dose: 1840 nM
  m (slope of the median-effect plot): 1.44
  EC90: 4050 nM
XO
  IC50: 13200 nM

## O=c1cc(-c2ccc(O)cc2)oc2cc(O)cc(O)c12 [Apigenin, apigenin]
XO
  IC50: 6330 nM
  type of XO inhibition: competitive

## Cc1nc(-c2ccc(OCC(C)C)c(C#N)c2)sc1C(=O)O [Febuxostat, febuxostat, reference compound]
Xanthine oxidase [1]
  EC10 dose: 5 nM
  EC30 dose: 15 nM
  EC70 dose: 40 nM
  m (slope of the median-effect plot): 1.57
  EC90: 120 nM

## O=c1c(O)c(-c2ccccc2)oc2cc(O)cc(O)c12 [Galangin, galangin]
XO
  type of XO inhibition: competitive

## O=c1cc(-c2ccc(O)c(O)c2)oc2cc(O)cc(O)c12 [Luteolin, luteolin]
Xanthine oxidase [2]
  IC50: 1680 nM
XO
  IC50: 8210 nM
  type of XO inhibition: competitive

## O=C1c2c(O)cc(O)cc2O[C@H](c2ccccc2)[C@H]1O [Pinobanksin, pinobanksin]
XO
  type of XO inhibition: competitive

## O=c1c(O)c(-c2ccc(O)c(O)c2)oc2cc(O)cc(O)c12 [Quercetin, quercetin]
XO
  IC50: 2920 nM
  type of XO inhibition: mixed-type

## O=C(/C=C/c1ccc(O)c(O)c1)O[C@H](Cc1ccc(O)c(O)c1)C(=O)O [Rosmarinic acid, rosmarinic acid]
Xanthine oxidase [1]; CompuSyn
  m (slope of the median-effect plot): 1.78
Xanthine oxidase [1]; [3]
  EC50: 1040 nM
Xanthine oxidase [1]; [4]
  EC50: 970 nM
Xanthine oxidase [1]; Fa 16%, rosmarinic acid/allopurinol analysis
  Dose of each drug alone required for the same effect: 0.32 µM
Xanthine oxidase [1]; Fa 34%, rosmarinic acid/allopurinol analysis
  Dose of each drug alone required for the same effect: 0.72 µM
Xanthine oxidase [1]; Fa 42%, rosmarinic acid/febuxostat analysis
  Dose of each drug alone required for the same effect: 0.87 µM
Xanthine oxidase [1]; Fa 66%, rosmarinic acid/febuxostat analysis
  Dose of each drug alone required for the same effect: 1.78 µM
Xanthine oxidase [1]; Fa 69%, rosmarinic acid/allopurinol analysis
  Dose of each drug alone required for the same effect: 2.06 µM
Xanthine oxidase [1]; Fa 74%, rosmarinic acid/febuxostat analysis
  Dose of each drug alone required for the same effect: 2.35 µM
Xanthine oxidase [1]; Fa 82%, rosmarinic acid/febuxostat analysis
  Dose of each drug alone required for the same effect: 3.42 µM
Xanthine oxidase [1]; Fa 92%, rosmarinic acid/febuxostat analysis
  Dose of each drug alone required for the same effect: 6.21 µM
Xanthine oxidase [1]; Fa 93%, rosmarinic acid/allopurinol analysis
  Dose of each drug alone required for the same effect: 8.35 µM
Xanthine oxidase [1]; Fa 98%, rosmarinic acid/allopurinol analysis
  Dose of each drug alone required for the same effect: 21.32 µM
Xanthine oxidase [1]
  EC90: 5220 nM
Xanthine oxidase [1]; [5]
  EC10 dose: 260 nM
Xanthine oxidase [1]; [6]
  EC30 dose: 480 nM
Xanthine oxidase [1]; [7]
  EC70 dose: 2440 nM
Xanthine oxidase [2]
  IC50: 970 nM

## COc1cc(O)c2c(=O)cc(-c3ccccc3)oc2c1 [Techtochrysin, techtochrysin]
Xanthine oxidase [1]; CompuSyn
  m (slope of the median-effect plot): 1.73
Xanthine oxidase [1]; [3]
  EC50: 81 nM
Xanthine oxidase [1]; [4]
  EC50: 84 nM
Xanthine oxidase [1]; Fa 19%, techtochrysin/allopurinol analysis
  Dose of each drug alone required for the same effect: 0.031 µM
Xanthine oxidase [1]; Fa 35%, techtochrysin/allopurinol analysis
  Dose of each drug alone required for the same effect: 0.064 µM
Xanthine oxidase [1]; Fa 53%, techtochrysin/febuxostat analysis
  Dose of each drug alone required for the same effect: 0.11 µM
Xanthine oxidase [1]; Fa 57%, techtochrysin/allopurinol analysis
  Dose of each drug alone required for the same effect: 0.15 µM
Xanthine oxidase [1]; Fa 69%, techtochrysin/febuxostat analysis
  Dose of each drug alone required for the same effect: 0.20 µM
Xanthine oxidase [1]; Fa 75%, techtochrysin/febuxostat analysis
  Dose of each drug alone required for the same effect: 0.25 µM
Xanthine oxidase [1]; Fa 84%, techtochrysin/febuxostat analysis
  Dose of each drug alone required for the same effect: 0.39 µM
Xanthine oxidase [1]; Fa 91%, techtochrysin/allopurinol analysis
  Dose of each drug alone required for the same effect: 0.98 µM
Xanthine oxidase [1]; Fa 94%, techtochrysin/febuxostat analysis
  Dose of each drug alone required for the same effect: 0.96 µM
Xanthine oxidase [1]; Fa 97%, techtochrysin/allopurinol analysis
  Dose of each drug alone required for the same effect: 3.19 µM
Xanthine oxidase [1]; Fa […]% (70% effect level doses)
  DRI: 3.51 fold
Xanthine oxidase [1]; Fa […]% (90% effect level doses)
  DRI: 3.63 fold
Xanthine oxidase [1]
  EC90: 880 nM
Xanthine oxidase [1]; [5]
  EC10 dose: 24 nM
Xanthine oxidase [1]; [6]
  EC30 dose: 46 nM
Xanthine oxidase [1]; [7]
  EC70 dose: 280 nM
Xanthine oxidase [2]
  IC50: 84 nM
Xanthine oxidase [2]; from IC50 values of Table 5
  fold enhancement in XO inhibitory activity compared with allopurinol: 10 folds
